Experimental data as given in PubChem BioAssay (NCI).
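Assay format: 96-well plates, 48-hour exposure. GI50 marks 50% less growth. TGI denotes the concentration required for complete inhibition of growth.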

How the values were obtained:
Assay in all cases: DTP human tumour cell line panel, 48 h
NCI-H226 lung = tested on: NCI-H226 lung
NCI-H23 lung = tested on: NCI-H23 lung
NCI-H460 lung = tested on: NCI-H460 lung
NCI-H522 lung = tested on: NCI-H522 lung
NCI/ADR-RES ovarian = tested on: NCI/ADR-RES ovarian
OVCAR-3 ovarian = tested on: OVCAR-3 ovarian
OVCAR-4 ovarian = tested on: OVCAR-4 ovarian
OVCAR-5 ovarian = tested on: OVCAR-5 ovarian
OVCAR-8 ovarian = tested on: OVCAR-8 ovarian
PC-3 prostate = tested on: PC-3 prostate
RPMI-8226 leukemia = tested on: RPMI-8226 leukemia
RXF 393 renal = tested on: RXF 393 renal
SF-268 CNS = tested on: SF-268 CNS
SF-295 CNS = tested on: SF-295 CNS
SF-539 CNS = tested on: SF-539 CNS
SK-MEL-28 melanoma = tested on: SK-MEL-28 melanoma
SK-MEL-5 melanoma = tested on: SK-MEL-5 melanoma
SK-OV-3 ovarian = tested on: SK-OV-3 ovarian
SN12C renal = tested on: SN12C renal
SNB-19 CNS = tested on: SNB-19 CNS
SNB-75 CNS = tested on: SNB-75 CNS
SW-620 colon = tested on: SW-620 colon
T-47D breast = tested on: T-47D breast
TK-10 renal = tested on: TK-10 renal
U251 CNS = tested on: U251 CNS
UACC-257 melanoma = tested on: UACC-257 melanoma
UACC-62 melanoma = tested on: UACC-62 melanoma
UO-31 renal = tested on: UO-31 renal

SMILES: Fc1ccc2c(c1)C1=C(CCC2)C(c2ccc(Cl)cc2)NC(=S)N1 (stereo not given)
- TGI (NCI-H226 lung): > 100 µM
- GI50 (NCI-H23 lung): 84.7 µM
- TGI (NCI-H23 lung): > 100 µM
- GI50 (NCI-H460 lung): 32.7 µM
- TGI (NCI-H460 lung): > 100 µM
- GI50 (NCI-H522 lung): 13.1 µM
- TGI (NCI-H522 lung): 94 µM
- GI50 (NCI/ADR-RES ovarian): 61.6 µM
- TGI (NCI/ADR-RES ovarian): > 100 µM
- GI50 (OVCAR-3 ovarian): 27.8 µM
- TGI (OVCAR-3 ovarian): > 100 µM
- GI50 (OVCAR-4 ovarian): 44.8 µM
- TGI (OVCAR-4 ovarian): > 100 µM
- GI50 (OVCAR-5 ovarian): > 100 µM
- TGI (OVCAR-5 ovarian): > 100 µM
- GI50 (OVCAR-8 ovarian): 25.8 µM
- TGI (OVCAR-8 ovarian): > 100 µM
- GI50 (PC-3 prostate): 17.6 µM
- TGI (PC-3 prostate): > 100 µM
- GI50 (RPMI-8226 leukemia): 13.1 µM
- TGI (RPMI-8226 leukemia): 53.8 µM
- GI50 (RXF 393 renal): 81.4 µM
- TGI (RXF 393 renal): > 100 µM
- GI50 (SF-268 CNS): 83.8 µM
- TGI (SF-268 CNS): > 100 µM
- GI50 (SF-295 CNS): 47 µM
- TGI (SF-295 CNS): > 100 µM
- GI50 (SF-539 CNS): 37.6 µM
- TGI (SF-539 CNS): > 100 µM
- GI50 (SK-MEL-28 melanoma): 78 µM
- TGI (SK-MEL-28 melanoma): > 100 µM
- GI50 (SK-MEL-5 melanoma): 28.4 µM
- TGI (SK-MEL-5 melanoma): > 100 µM
- GI50 (SK-OV-3 ovarian): > 100 µM
- TGI (SK-OV-3 ovarian): > 100 µM
- GI50 (SN12C renal): 60.8 µM
- TGI (SN12C renal): 89.2 µM
- GI50 (SNB-19 CNS): 77.9 µM
- TGI (SNB-19 CNS): > 100 µM
- GI50 (SNB-75 CNS): 69.9 µM
- TGI (SNB-75 CNS): > 100 µM
- GI50 (SW-620 colon): 39.1 µM
- TGI (SW-620 colon): > 100 µM
- GI50 (T-47D breast): 54.4 µM
- TGI (T-47D breast): > 100 µM
- GI50 (TK-10 renal): 12.6 µM
- TGI (TK-10 renal): 80.3 µM
- GI50 (U251 CNS): 54.7 µM
- TGI (U251 CNS): > 100 µM
- GI50 (UACC-257 melanoma): 21.5 µM
- TGI (UACC-257 melanoma): 70 µM
- GI50 (UACC-62 melanoma): 33.6 µM
- TGI (UACC-62 melanoma): > 100 µM
- GI50 (UO-31 renal): 16.9 µM
- TGI (UO-31 renal): > 100 µM
